Experimental data from patent publication US20050220836A1, “Drug delivery device” (priority 2004, published 2005).

How the values were obtained:
[1] = tested on: human coronary artery smooth muscle cells; assay: anti-proliferative activity in synchronized cultured cells stimulated with two percent fetal bovine serum; type: cell-based
Source text: (§1) The multiple curves represent various concentrations of topotecan ranging from zero to three hundred nanomolar concentrations.
(§2) The multiple curves represent various concentrations of etoposide ranging from zero to eight hundred nanomolar concentrations.
The multiple curves represent various concentrations of Panzem® ranging from zero to 100 micromolar concentrations.

cell viability = cell viability assay; type: cell-based
Source text: as §1, §2

[2] = in vivo release kinetics from rapamycin, mycophenolic acid and polymer coating, porcine pharmacokinetics studies; settings: 180 micrograms each drug, with or without BMA topcoat
[3] = tested on: human coronary artery smooth muscle cells; assay: anti-proliferative activity in non-synchronized cultured cells stimulated with two percent fetal bovine serum; type: cell-based
Source text: The multiple curves represent various concentrations of mycophenolic acid ranging from zero to one thousand nanomolar concentrations.
FIG. 58 illustrates, in graphical format, the anti-proliferative activity of cladribine in non-synchronized cultured human coronary artery smooth muscle cells stimulated with two percent fetal bovine serum.
The multiple curves represent various concentrations of cladribine ranging from zero to nine hundred nanomolar concentrations.

[4] = tested on: human coronary artery smooth muscle cell proliferation; assay: in vitro cell culture study, coronary artery smooth muscle cell proliferation; type: cell-based
Source text: FIG. 51 is a graph of the inhibition of coronary artery smooth muscle cells by trichostatin A in a cell culture study.

tumor cell lines = tumor cell lines (Woo et al., 2002); cited from earlier work
human endothelial cells = assay: Cladribine example, PDGF-stimulated cell proliferation, endothelial cells; type: cell-based; settings: for % of PDGF-stimulated increase in cell count: EC, day six, mean of triplicate
Experimental: (§3) To assess the ability of cladribine to prevent cell proliferation, human smooth muscle or endothelial cells (Clonetics, Walkersville, Md.) were seeded at a density of 2000 cells/cm^2 (approximately 3600 cells/well) into each well of 12-well plates and cultured with 1.5 ml of growth medium containing five percent fetal calf serum (FCS). After twenty-four hours, the growth medium was changed and fresh medium containing 10 ng/ml platelet-derived growth factor AB (PDGF AB; LIFE Technologies), as well as various concentrations of cladribine (0.001-10,000 nM) were added with triplicate wells. Medium was replaced with fresh cladribine-containing medium after three days. On day six, cells were detached by trypsinization to yield a cell suspension, lightly centrifuged to pellet and then counted manually using a Neubauer hemocytometer system. Cell viability was assessed by trypan blue exclusion.

[5] = in vivo release kinetics of cladribine from polymeric stent coatings; parameters: species or system Yorkshire pig; settings: Bx Velocity stents
Source text: FIG. 61 is a graphical representation of the in vivo release kinetics of cladribine from a polymeric coating on BxVelocity® stents, available from Cordis Corporation, implanted in a Yorkshire pig. The basecoat comprises an 85/15 ratio of PVDF and HFP and cladribine for a total combined weight of one thousand eight hundred micrograms (cladribine comprising thirty percent of the total weight). […]
(§4) The basecoat is applied to Bx Velocity® stents and implanted into Yorkshire pigs.
as §4

[6] = tested on: human smooth muscle cells; assay: Cladribine example, PDGF-stimulated cell proliferation, smooth muscle cells; type: cell-based; settings: for % of PDGF-stimulated increase in cell count: SMC, day six, mean of triplicate
Experimental: as §3

With COc1cc([C@@H]2c3cc4c(cc3[C@@H](O[C@@H]3O[C@@H]5CO[C@@H](C)O[C@H]5[C@H](O)[C@H]3O)[C@H]3COC(=O)[C@H]23)OCO4)cc(OC)c1O [Etoposide, etoposide] the “effect of addition on anti-proliferative activity of rapamycin” value (from here on “effect of addition”) ([1]; etoposide zero to eight hundred nanomolar added to rapamycin) was “increases the percent inhibition of rapamycin alone” and the cytotoxicity (cell viability; at concentrations up to ten micromolar) was “non-cytotoxic”.

For COc1c(C)c2c(c(O)c1C/C=C(\C)CCC(=O)O)C(=O)OC2 [mycophenolic acid], the “release from EVA/BMA basecoat compared with rapamycin” value [2] was “elutes more completely over a shorter duration than the rapamycin” and the “effect of addition” value ([3]; mycophenolic acid zero to one thousand nanomolar added to rapamycin, non-synchronized cells) was “potentiates the anti-proliferative activity of rapamycin”.

For CC[C@@]1(O)C(=O)OCc2c1cc1n(c2=O)Cc2cc3c(CN(C)C)c(O)ccc3nc2-1 [Topotecan, topotecan], the “effect of addition” value ([1]; topotecan zero to three hundred nanomolar added to rapamycin) was “increases the percent inhibition of rapamycin alone” and the cytotoxicity (cell viability; at concentrations up to one micromolar) was “non-cytotoxic”.

In the case of CC(/C=C/C(=O)NO)=C\[C@@H](C)C(=O)c1ccc(N(C)C)cc1 [trichostatin A], the IC50 ([4]; human coronary artery smooth muscle cells, cell culture, read-out: anti-proliferative IC50) is listed as roughly 6 nM, the “inhibition of human coronary artery smooth muscle cell proliferation” value ([4]; in vitro cell culture) is listed as “completely inhibit” and the “anti-proliferative IC50” value (tumor cell lines) is listed as “low nM range”.

For COc1cc2c(cc1O)CC[C@@H]1[C@@H]2CC[C@]2(C)[C@@H](O)CC[C@@H]12 [Panzem®, 2-methoxyestradiol], the “effect of addition” value ([1]; Panzem zero to 100 micromolar added to rapamycin) was “increases the percent of inhibition of rapamycin alone” and the anti-proliferative activity alone ([1]; two percent fetal bovine serum) was “extremely effective inhibitor”.

In the case of Nc1nc(Cl)nc2c1ncn2[C@H]1C[C@H](O)[C@@H](CO)O1 [Cladribine, 2-chlorodeoxyadenosine], the “% of PDGF-stimulated increase in cell count” value (“% of PDGF-stimulated increase” for short) (human endothelial cells; cladribine 0.001 nM) is reported as 100%, the “% of PDGF-stimulated increase” value (human endothelial cells; cladribine 0.01 nM) is reported as 90% and the “% of PDGF-stimulated increase” value (human endothelial cells; cladribine 0.1 nM) is reported as 79%. The “% of PDGF-stimulated increase” value (human endothelial cells; cladribine 1 nM) was 75%, the “% of PDGF-stimulated increase” value (human endothelial cells; cladribine 10 nM) was 59% and the “% of PDGF-stimulated increase” value (human endothelial cells; cladribine 100 nM) was 57%. The “% of PDGF-stimulated increase” value (human endothelial cells; cladribine 1000 nM) was 35%, the “% of PDGF-stimulated increase” value (human endothelial cells; cladribine 10,000 nM) was 10% and the IC50 (human endothelial cells; Homo sapiens, Endothelial cell, PDGF AB stimulated, reduction to 50 percent of vehicle-treated cell count, read-out: IC50 for inhibition of endothelial cell growth) was 40 nM. The “elution from PVDF/HFP (85/15) coating” value ([5]; Yorkshire pig, 1800 microgram basecoat with thirty percent cladribine, 300 microgram topcoat) was “levels off significantly”, the “elution from EVA/BMA basecoat compared with rapamycin” value ([5]; Yorkshire pigs, 200 microgram BMA topcoat) was “elutes more rapidly than rapamycin” and the IC50 ([6]; Homo sapiens, PDGF AB stimulated, reduction to 50 percent of vehicle-treated cell count, read-out: IC50 for inhibition of smooth muscle cell growth) was 23 nM. For the same molecule, the “% of PDGF-stimulated increase” value ([6]; cladribine 0.01 nM) was 104%, the “% of PDGF-stimulated increase” value ([6]; cladribine 0.1 nM) was 86% and the “% of PDGF-stimulated increase” value ([6]; cladribine 1 nM) was 85%. The “% of PDGF-stimulated increase” value ([6]; cladribine 10 nM) was 54%, the “% of PDGF-stimulated increase” value ([6]; cladribine 100 nM) was 58% and the “% of PDGF-stimulated increase” value ([6]; cladribine 1000 nM) was 12%. The “% of PDGF-stimulated increase” value ([6]; cladribine 10,000 nM) was −4%, the “potency on smooth muscle cells relative to endothelial cells” value ([6]; from the IC50 values) was “approximately twice as potent” and the “effect of addition” value ([3]; cladribine zero to nine hundred nanomolar added to rapamycin, non-synchronized cells) was “increases the percent inhibition of rapamycin alone”. For the same molecule, the “inhibition of human coronary artery smooth muscle cell proliferation” value ([3]; non-synchronized cells, two percent fetal bovine serum) was “completely inhibits” and the IC50 ([3]; non-synchronized human coronary artery smooth muscle cells, two percent fetal bovine serum) was roughly 241 nM.
